From the NIST ThermoML archive (doi:10.1021/je4008298)
Numbers after ± are expanded uncertainties.

Experiment: mn = molality of the nth substance listed, in mol/kg
Details: for viscosity / mass density: 101.3 kPa, Liquid; for viscosity: Capillary tube (Ostwald / Ubbelohde) method; for surface tension liquid-gas: Pendant drop shape

NC(CO)CO [2-amino-1,3-propanediol] + O
Details	mass density, 293.2 K [kg/m3]	mass density, 300.2 K [kg/m3]	mass density, 307.2 K [kg/m3]	mass density, 313.2 K [kg/m3]	surface tension liquid-gas, 298.2 K [mN/m]	surface tension liquid-gas, 313.2 K [mN/m]	viscosity, 293.2 K [mPa·s]	viscosity, 300.2 K [mPa·s]	viscosity, 307.2 K [mPa·s]	viscosity, 313.2 K [mPa·s]
m1 = 0.953	1012.63 ± 0.72	1010.28 ± 0.77	1008.07 ± 0.82	1005.49 ± 0.86	–	–	1.244 ± 0.018	1.056 ± 0.018	0.896 ± 0.017	0.8 ± 0.017
m1 = 0.959	–	–	–	–	71.7 ± 0.6	69.4 ± 0.6	–	–	–	–
m1 = 2.052	1026.97 ± 0.74	1024.18 ± 0.79	1021.61 ± 0.84	1019.22 ± 0.88	–	–	1.606 ± 0.02	1.335 ± 0.019	1.118 ± 0.018	0.983 ± 0.017
m1 = 2.151	–	–	–	–	71.3 ± 0.6	69 ± 0.6	–	–	–	–
m1 = 3.459	–	–	–	–	70.8 ± 0.6	68.6 ± 0.6	–	–	–	–
m1 = 3.464	1041.67 ± 0.76	1038.8 ± 0.81	1036.8 ± 0.86	1033.49 ± 0.91	–	–	2.157 ± 0.024	1.769 ± 0.021	1.458 ± 0.02	1.275 ± 0.018
m1 = 4.693	1052.77 ± 0.79	1050.01 ± 0.83	1047.38 ± 0.88	1044.53 ± 0.92	–	–	2.784 ± 0.027	2.261 ± 0.024	1.845 ± 0.022	1.588 ± 0.02
m1 = 4.745	–	–	–	–	70.4 ± 0.6	68.3 ± 0.6	–	–	–	–
